Assays:
[1] = tested on: Rattus norvegicus
[2] = tested on: Mus musculus; conditions: chronic; duration: 18 months; body weight
[3] = tested on: Anas platyrhynchos; conditions: acute; oral; unspecified; mortality
[4] = tested on: Landoltia sp.; conditions: chronic/long-term; duration: 8 weeks; frond number
[5] = tested on: Oncorhynchus mykiss; conditions: acute; duration: 96 hours; mortality
[6] = tested on: Folsomia candida; conditions: chronic/long-term; duration: 28 days; mortality
[7] = tested on: Apis mellifera; conditions: acute, mortality
[8] = tested on: Tagia sp.; conditions: chronic/long-term; duration: 56 days; growth
[9] = tested on: Colinus virginianus
[10] = tested on: Canidae; conditions: subchronic; duration: 90 days; oral; Dog Other

`COC(=O)c1ccc(CNS(C)(=O)=O)cc1S(=O)(=O)NC(=O)Nc1nc(OC)cc(OC)n1` [Mesosulfuron-methyl] was tested, and the LD50 ([1]; acute, oral, mortality) was over 5000 mg/kg, the NOEL ([1]; reproduction developmental, no effects) was 840 mg/kg-day and the NOAEL [2] was 103 mg/kg-day. The LD50 [3] was over 2000 mg/kg-day, the NOEC [4] was 0.000388 mg/L and the LC50 [5] was over 100 µg/mL. The NOEC [6] was 1000 mg/kg, the LD50 ([7]; dermal) was over 100 µg/piece and the LD50 ([7]; oral, unspecified) was over 106 µg/piece. The NOEC [8] was 125 mg/kg, the LD50 ([9]; acute, oral, mortality) was over 2000 mg/kg-day and the NOEL ([9]; chronic) was 93 mg/kg-day. The NOAEL [10] was 648 mg/kg-day.

— EPA's ToxValDB 9.5 (doi:10.2903/j.efsa.2016.4584)
